Columns and labels:
KRAS G12C = KRAS G12C (Homo sapiens, UniProt P01116, G12C); assay: GDP-GTP exchange assay (KRAS_G12C exchange); format: biochemical; details: bodipy-GDP loaded KRAS G12C 2.5 nM, SOS1 150 nM, GppNHp; 2 hours pre-incubation, 2 hours reaction; read-out: G12C_exchange
Summary of the method: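 Fluorescence exchange of bodipy-GDP for GppNHp, SOS1-driven, read at 485/520 nm; IC50 from four-parameter variable-slope fit. Both mutants used 2.5 nM final labelled protein and a 2 h compound pre-incubation. G12C reaction had 500 uM GppNHp and 150 nM SOS1 for 2 h; G12D ran 4 h.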

[1] = tested on: MIA PaCa-2 (KRAS G12C) cells; assay: Cellular pERK HTRF assay (KRAS_G12C pERK); format: cell-based, human; details: Homo sapiens, MIA PaCa-2, 4 hours incubation, read-out: G12C_pERK
Summary of the method: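 Phospho-ERK1/2 HTRF readout (665 and 620 nm) in lysed MIA PaCa-2 cells, antibodies incubated overnight at room temperature. Cells seeded the day before and treated with G12C compounds for 4 h at 37 °C; IC50 fitted to percent inhibition against log inhibitor concentration.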

Sequence of KRAS G12C (P01116 1-188 isoform P01116-2 G12C): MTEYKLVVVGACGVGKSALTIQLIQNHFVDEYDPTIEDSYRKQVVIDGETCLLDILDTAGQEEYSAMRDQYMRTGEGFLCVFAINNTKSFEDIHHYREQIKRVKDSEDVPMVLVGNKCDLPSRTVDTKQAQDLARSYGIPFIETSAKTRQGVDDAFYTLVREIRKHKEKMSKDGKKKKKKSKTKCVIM

Row | IC50 (KRAS G12C) [nM] | IC50 [1] [nM] | SMILES
1 | ≤ 100 | ≤ 100 | C=CC(=O)N1CC[C@H](n2nnc3c(OC[C@@H]4CCCN4C)nc4c(F)c(-c5cccc(Cl)c5C)c(C)cc4c32)C[C@H]1CC#N [Example 98, 2-((2S,4S)-1-acryloyl-4-(7-(3-chloro-2-methylphenyl)-6-fluoro-8-methyl-4-(((S)-1-methylpyrrolidin-2-yl)methoxy)-1H-[1,2,3]triazolo[4,5-c]quinolin-1-yl)piperidin-2-yl)acetonitrile]
2 | ≤ 100 | ≤ 100 | CC#CC(=O)N1CC[C@H](n2nnc3c(OC[C@@H]4CCCN4C)nc4c(F)c(-c5cccc(Cl)c5C)c(C)cc4c32)C[C@H]1CC#N [Example 99, 2-((2S,4S)-1-(but-2-ynoyl)-4-(7-(3-chloro-2-methylphenyl)-6-fluoro-8-methyl-4-(((S)-1-methylpyrrolidin-2-yl)methoxy)-1H-[1,2,3]triazolo[4,5-c]quinolin-1-yl)piperidin-2-yl)acetonitrile]
3 | ≤ 100 | ≤ 100 | COC/C=C/C(=O)N1CC[C@H](n2nnc3c(OC[C@@H]4CCCN4C)nc4c(F)c(-c5cccc(Cl)c5C)c(C)cc4c32)C[C@H]1CC#N [Example 100, 2-((2S,4S)-4-(7-(3-chloro-2-methylphenyl)-6-fluoro-8-methyl-4-(((S)-1-methyl-pyrrolidin-2-yl)methoxy)-1H-[1,2,3]triazolo[4,5-c]quinolin-1-yl)-1-((E)-4-methoxybut-2-enoyl)piperidin-2-yl)acetonitrile]
4 | ≤ 100 | ≤ 100 | C=CC(=O)N1CC[C@H](n2nnc3c(N4CC(C)(N(C)C)C4)nc4c(F)c(-c5cccc(Cl)c5C)c(C)cc4c32)C[C@H]1CC#N [Example 101, 2-((2S,4S)-1-acryloyl-4-(7-(3-chloro-2-methylphenyl)-4-(3-(dimethylamino)-3-methylazetidin-1-yl)-6-fluoro-8-methyl-1H-[1,2,3]triazolo[4,5-c]quinolin-1-yl)piperidin-2-yl)acetonitrile]
5 | ≤ 100 | ≤ 100 | Cc1cc2c(nc(N3CC(C)(N(C)C)C3)c3nnn([C@H]4CCN(C(=O)/C=C/C(F)F)[C@H](CC#N)C4)c32)c(F)c1-c1cccc(Cl)c1C [Example 102, 2-((2S,4S)-4-(7-(3-chloro-2-methylphenyl)-4-(3-(dimethylamino)-3-methylazetidin-1-yl)-6-fluoro-8-methyl-1H-[1,2,3]triazolo-[4,5-c]quinolin-1-yl)-1-((E)-4,4-difluorobut-2-enoyl)-piperidin-2-yl)acetonitrile]
6 | ≤ 100 | ≤ 100 | CC#CC(=O)N1CC[C@H](n2nnc3c(N4CC(C)(N(C)C)C4)nc4c(F)c(-c5cccc(Cl)c5C)c(C)cc4c32)C[C@H]1CC#N [Example 103, 2-((2S,4S)-1-(but-2-ynoyl)-4-(7-(3-chloro-2-methyl-phenyl)-4-(3-(dimethyl-amino)-3-methylazetidin-1-yl)-6-fluoro-8-methyl-1H-[1,2,3]triazolo[4,5-c]quinolin-1-yl)piperidin-2-yl)acetonitrile]
7 | ≤ 100 | ≤ 100 | Cc1cc2c(nc(N3CC(C)(N(C)C)C3)c3nnn([C@H]4CCN(C(=O)/C=C/CF)[C@H](CC#N)C4)c32)c(F)c1-c1cccc(Cl)c1C [Example 104, 2-((2S,4S)-4-(7-(3-chloro-2-methylphenyl)-4-(3-(dimethylamino)-3-methyl-azetidin-1-yl)-6-fluoro-8-methyl-1H-[1,2,3]triazolo[4,5-c]quinolin-1-yl)-1-((E)-4-fluorobut-2-enoyl)piperidin-2-yl)acetonitrile]
8 | ≤ 100 | ≤ 100 | Cc1cc2c(nc(N3CC(C)(N(C)C)C3)c3nnn([C@H]4CCN(C(=O)/C=C/CN(C)C)[C@H](CC#N)C4)c32)c(F)c1-c1cccc(Cl)c1C [Example 105, 2-((2S,4S)-4-(7-(3-chloro-2-methylphenyl)-4-(3-(dimethylamino)-3-methylazetidin-1-yl)-6-fluoro-8-methyl-1H-[1,2,3]triazolo[4,5-c]quinolin-1-yl)-1-((E)-4-(dimethylamino)but-2-enoyl)piperidin-2-yl)acetonitrile]
9 | ≤ 100 | ≤ 100 | C=CC(=O)N1CC[C@H](n2cnc3c(N4CC(N(C)C)C4)nc4c(F)c(-c5ccccc5C(F)(F)F)c(Cl)cc4c32)C[C@H]1CC#N [Example 106, 2-((2S,4S)-1-acryloyl-4-(8-chloro-4-(3-(dimethylamino)azetidin-1-yl)-6-fluoro-7-(2-(trifluoromethyl)phenyl)-1H-imidazo[4,5-c]quinolin-1-yl)piperidin-2-yl)acetonitrile]
10 | ≤ 100 | ≤ 100 | C=CC(=O)N1CC[C@H](n2cnc3c(N4CC(N(C)C)C4)nc4c(F)c(-c5cccc(Cl)c5Cl)c(Cl)cc4c32)C[C@H]1CC#N [Example 107, 2-((2S,4S)-1-acryloyl-4-(8-chloro-7-(2,3-dichlorophenyl)-4-(3-(dimethylamino)azetidin-1-yl)-6-fluoro-1H-imidazo[4,5-c]quinolin-1-yl)piperidin-2-yl)acetonitrile]
11 | ≤ 100 | ≤ 100 | C=CC(=O)N1CC[C@H](n2cnc3c(N4CC(N(C)C)C4)nc4c(F)c(-c5cnccc5C)c(Cl)cc4c32)C[C@H]1CC#N [Example 108, 2-((2S,4S)-1-acryloyl-4-(8-chloro-4-(3-(dimethylamino)azetidin-1-yl)-6-fluoro-7-(4-methylpyridin-3-yl)-1H-imidazo[4,5-c]quinolin-1-yl)piperidin-2-yl)acetonitrile]
12 | ≤ 100 | ≤ 100 | C=CC(=O)N1CC[C@H](n2cnc3c(N4CC(N(C)C)C4)nc4c(F)c(-c5cccc(C)c5)c(Cl)cc4c32)C[C@H]1CC#N [Example 109, 2-((2S,4S)-1-acryloyl-4-(8-chloro-4-(3-(dimethylamino)-azetidin-1-yl)-6-fluoro-7-(m-tolyl)-1H-imidazo[4,5-c]quinolin-1-yl)piperidin-2-yl)acetonitrile]
13 | ≤ 100 | ≤ 100 | C=CC(=O)N1CC[C@H](n2cnc3c(N4CC(N(C)C)C4)nc4c(F)c(-c5cncc(C)c5C)c(Cl)cc4c32)C[C@H]1CC#N [Example 110a, 2-((2S,4S)-1-acryloyl-4-(8-chloro-4-(3-(dimethylamino)-azetidin-1-yl)-7-(4,5-dimethylpyridin-3-yl)-6-fluoro-1H-imidazo[4,5-c]quinolin-1-yl)piperidin-2-yl)acetonitrile]
14 | ≤ 100 | ≤ 100 | C=CC(=O)N1CC[C@H](n2nnc3c(N4CC(N(C)C)C4)nc4c(F)c(-c5cccc(C)c5C)c(Cl)cc4c32)C[C@H]1CC#N [Example 111, 2-((2S,4S)-1-acryloyl-4-(8-chloro-4-(3-(dimethylamino)azetidin-1-yl)-7-(2,3-dimethylphenyl)-6-fluoro-1H-[1,2,3]triazolo[4,5-c]quinolin-1-yl)piperidin-2-yl)acetonitrile]
15 | ≤ 100 | ≤ 100 | C=CC(=O)N1CC[C@H](n2nnc3c(N4CC(N(C)C)C4)nc4c(F)c(-c5cccc(Cl)c5C)c(Cl)cc4c32)C[C@H]1CC#N [Example 112, 2-((2S,4S)-1-acryloyl-4-(8-chloro-7-(3-chloro-2-methylphenyl)-4-(3-(dimethylamino)azetidin-1-yl)-6-fluoro-1H-[1,2,3]triazolo[4,5-c]quinolin-1-yl)piperidin-2-yl)acetonitrile]
16 | ≤ 100 | ≤ 100 | C=CC(=O)N1CC[C@H](n2nnc3c(N4CC(N(C)C)C4)nc4c(F)c(-c5cccc(Cl)c5Cl)c(Cl)cc4c32)C[C@H]1CC#N [Example 113, 2-((2S,4S)-1-acryloyl-4-(8-chloro-7-(2,3-dichlorophenyl)-4-(3-(dimethylamino)azetidin-1-yl)-6-fluoro-1H-[1,2,3]triazolo[4,5-c]quinolin-1-yl)piperidin-2-yl)acetonitrile]
17 | ≤ 100 | ≤ 100 | C=CC(=O)N1CC[C@H](n2nnc3c(N4CC(N(C)C)C4)nc4c(F)c(-c5cccc(C)c5)c(Cl)cc4c32)C[C@H]1CC#N [Example 114, 2-((2S,4S)-1-acryloyl-4-(8-chloro-4-(3-(dimethylamino)azetidin-1-yl)-6-fluoro-7-(m-tolyl)-1H-[1,2,3]triazolo[4,5-c]quinolin-1-yl)piperidin-2-yl)acetonitrile]
18 | ≤ 100 | ≤ 100 | C=CC(=O)N1CC[C@H](n2nnc3c(N4CC(N(C)C)C4)nc4c(F)c(-c5cccc(C#N)c5C)c(Cl)cc4c32)C[C@H]1CC#N [Example 115, 3-(1-((2S,4S)-1-acryloyl-2-(cyanomethyl)piperidin-4-yl)-8-chloro-4-(3-(dimethylamino)azetidin-1-yl)-6-fluoro-1H-[1,2,3]triazolo[4,5-c]quinolin-7-yl)-2-methylbenzonitrile]
19 | ≤ 100 | ≤ 100 | C=CC(=O)N1CC[C@H](n2nnc3c(N4CC(N(C)C)C4)nc4c(F)c(-c5ccc(F)c(C)c5C)c(Cl)cc4c32)C[C@H]1CC#N [Example 116, 2-((2S,4S)-1-acryloyl-4-(8-chloro-4-(3-(dimethylamino)azetidin-1-yl)-6-fluoro-7-(4-fluoro-2,3-dimethylphenyl)-1H-[1,2,3]triazolo[4,5-c]quinolin-1-yl)piperidin-2-yl)acetonitrile]
20 | ≤ 100 | ≤ 100 | C=CC(=O)N1CC[C@H](n2nnc3c(N4CC(N(C)C)C4)nc4c(F)c(-c5ccccc5C5CC5)c(Cl)cc4c32)C[C@H]1CC#N [Example 117, 2-((2S,4S)-1-acryloyl-4-(8-chloro-7-(2-cyclopropylphenyl)-4-(3-(dimethylamino)azetidin-1-yl)-6-fluoro-1H-[1,2,3]triazolo[4,5-c]quinolin-1-yl)piperidin-2-yl)acetonitrile]
